{"source": "patent US20130137760A1", "about": "“GAMBOGIC AMINE, A SELECTIVE TRKA AGONIST WITH NEUROPROTECTIVE ACTIVITY” (EMORY UNIVERSITY, priority 2007, published 2013)", "key": {"hippocampal neurons": {"test_system": "hippocampal neurons", "test": "OGD (Oxygen and Glucose Deprivation) neuronal cell death in hippocampal neurons", "type": "cell-based", "details": "in vitro", "procedure": "NGF overexpression decreases infarct volume and neuronal apoptosis in transgenic mice or intraventricular injected mice (Guegan et al., 1998; Luk et al., 2004). NGF also potently protects PC12 cells from apoptosis in an OGD (Oxygen-glucose-deprivation) model (Tabakman et al., 2005). To explore whether test compounds might exert any protective effect on hippocampal neurons in OGD, the primary preparations can be pre-treated with NGF or test compounds 30 min before OGD stimulation. […] Titration assays can show whether the compounds protect neurons in a dose-dependent manner. Therefore, the assay can identify compounds which selectively protect TrkA expression cells and primary neurons from apoptosis.\nNGF overexpression decreases infarct volume and neuronal apoptosis in transgenic mice or intraventricular injected mice (Guegan et al., 1998; Luk et al., 2004). NGF also potently protects PC12 cells from apoptosis in an OGD (Oxygen-glucose-deprivation) model (Tabakman et al., 2005). To explore whether gambogic amines exert any protective effect on hippocampal neurons in OGD, one can pre-treat the primary preparations with NGF or various compounds 30 min before OGD stimulation. […] Titration assays can reveal whether or not the compounds protect neurons in a dose-dependent manner. […]"}, "hippocampus": {"test_system": "hippocampus", "test": "Kainic acid-elicited neuronal cell death in mouse brain (TUNEL, hippocampus)", "type": "in vivo, C57BL/6 mice", "details": "mouse brain", "from_the_text": "Kainic acid (KA) is a potent agonist for the AMPA receptor. Peripheral injections of KA result in recurrent seizures and the subsequent degeneration of select populations of neurons in the hippocampus (Nadler et al., 1980; Schauwecker and Steward, 1997; Sperk et al., 1983). It has been shown that the activation of caspase-3 is a necessary component of KA-induced cell death (Faherty et al., 1999). To explore whether test compounds can block the neurotoxicity initiated by KA, the compounds can be subcutaneously injected (for example, at a concentration of 2 mg/kg) into C57BL/6 mice, followed by 25 mg/kg KA. In 5 days, the mice can be perfused and the brains cut to a thickness of 5 μm and mounted on slides.\nKainic acid (KA) is a potent agonist for the AMPA receptor. Peripheral injections of KA result in recurrent seizures and the subsequent degeneration of select populations of neurons in the hippocampus (Nadler et al., 1980; Schauwecker and Steward, 1997; Sperk et al., 1983). It has been shown that the activation of caspase-3 is a necessary component of KA-induced cell death (Faherty et al., 1999). To explore whether gambogic amines can block the neurotoxicity initiated by KA, one can subcutaneously inject 2 mg/kg of a gambogic amine into C57BL/6 mice, followed by 25 mg/kg KA. In 5 days, the mice can be perfused and the brains were cut to a thickness of 5 μm and mounted on slides. TUNEL staining can reveal whether KA provokes enormous apoptosis in the hippocampus, and whether this effect is substantially diminished by the gambogic amine.\nMale C57BL/6 mice aged of 60 days can be injected subcutaneously (s.c.) with a single dose of either 30% ethanol in saline or KA (25 mg/kg) (Sigma, Mo.) or the gambogic amine (2 mg/kg) followed by KA. Animals can be continually monitored for 2 h for the onset of seizure activity. At 5 days following treatment, animals can be anesthetized and perfused with 4% paraformaldehyde in 0.1 M phosphate buffered saline. Brains can be removed, post-fixed overnight and processed for paraffin embedding. […]"}}, "data": [{"smiles": "CC(C)=CCC[C@]1(C)C=Cc2c(O)c3c(c(CC=C(C)C)c2O1)O[C@]12C(=C[C@@H]4CC1C(C)(C)O[C@@]2(C/C=C(/C)C(N)=O)C4=O)C3=O", "note": "[gambogic amide]", "values": [{"measurement": "protection of hippocampal neurons from OGD neuronal cell death", "setting": "hippocampal neurons", "value": "potent neurotrophic effects"}, {"measurement": "block of kainic acid-elicited neuronal cell death in mouse brain", "setting": "hippocampus", "value": "strongly block"}]}]}
